The source of these data is PubChem BioAssay AID328 (DTP/NCI, 2004).

SMILES strings stand for the structures. Inconclusive results and toxic doses are left out.

In the assay the test system is BDF1 mice, P388 leukemia ip, median survival T/C. Description: NCI In Vivo Anticancer Drug Screen. Data for tumor model P388 Leukemia (intraperitoneal) in B6D2F1 (BDF1) mice. The conditions noted are these: endpoint: median survival time, higher = longer survival. An outline of the steps:
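Vehicle-dosed animals serve as the reference; survival of compound-dosed, tumour-implanted mice is divided by it.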

[1] abbreviates: dose: 12.5 mg/kg/injection, schedule: Q04DX003 (ip), vehicle: saline.
Setting [2] is: dose: 25.0 mg/kg/injection, schedule: Q01DX009 (ip), vehicle: saline.
Where [3] appears, read: dose: 50.0 mg/kg/injection, schedule: Q01DX009 (ip), vehicle: saline.
Setting [4] is: dose: 50.0 mg/kg/injection, schedule: Q04DX003 (ip), vehicle: saline.
[5] abbreviates: dose: 25.0 mg/kg/injection, schedule: Q01DX009 (ip), vehicle: saline with Tween-80.
Setting [6] is: dose: 50.0 mg/kg/injection, schedule: Q01DX009 (ip), vehicle: saline with Tween-80.
Where [7] appears, read: dose: 100.0 mg/kg/injection, schedule: Q01DX009 (ip), vehicle: saline with Tween-80.
[8] abbreviates: dose: 100.0 mg/kg/injection, schedule: Q04DX003 (ip), vehicle: saline with Tween-80.
The mark [9] stands for this setting: dose: 200.0 mg/kg/injection, schedule: Q01DX009 (ip), vehicle: saline with Tween-80.
Setting [10] is: dose: 200.0 mg/kg/injection, schedule: Q04DX003 (ip), vehicle: saline with Tween-80.
[11] abbreviates: dose: 400.0 mg/kg/injection, schedule: Q01DX009 (ip), vehicle: saline with Tween-80.
[12] abbreviates: dose: 400.0 mg/kg/injection, schedule: Q04DX003 (ip), vehicle: saline with Tween-80.
[13] abbreviates: dose: 50.0 mg/kg/injection, schedule: Q01DX009 (ip), vehicle: Klucel (hydroxypropylcellulose) (HPC).
[14] abbreviates: dose: 100.0 mg/kg/injection, schedule: Q01DX009 (ip), vehicle: Klucel (hydroxypropylcellulose) (HPC).
[15] abbreviates: dose: 100.0 mg/kg/injection, schedule: Q04DX003 (ip), vehicle: Klucel (hydroxypropylcellulose) (HPC).
The mark [16] stands for this setting: dose: 200.0 mg/kg/injection, schedule: Q01DX009 (ip), vehicle: Klucel (hydroxypropylcellulose) (HPC).
Setting [17] is: dose: 200.0 mg/kg/injection, schedule: Q04DX003 (ip), vehicle: Klucel (hydroxypropylcellulose) (HPC).
Setting [18] is: dose: 400.0 mg/kg/injection, schedule: Q04DX003 (ip), vehicle: Klucel (hydroxypropylcellulose) (HPC).
[19] abbreviates: dose: 50.0 mg/kg/injection, schedule: Q01DX005 (ip), vehicle: saline with Tween-80.
The mark [20] stands for this setting: dose: 100.0 mg/kg/injection, schedule: Q01DX005 (ip), vehicle: saline with Tween-80.
[21] abbreviates: dose: 200.0 mg/kg/injection, schedule: Q01DX005 (ip), vehicle: saline with Tween-80.

`CC1(C)N=C(N)N=C(N)N1c1ccc(CCCCc2ccc(Cl)c(S(=O)(=O)F)c2)c(Cl)c1`: the T/C (dose: 0.88 mg/kg/injection, schedule: Q01DX009 (ip), vehicle: saline) is 118 % of control; the T/C (dose: 1.32 mg/kg/injection, schedule: Q01DX009 (ip), vehicle: saline) was 109 % of control; the T/C (dose: 2.36 mg/kg/injection, schedule: Q04DX003 (ip), vehicle: saline) was 106 % of control; the T/C (dose: 3.56 mg/kg/injection, schedule: Q04DX003 (ip), vehicle: saline) was 123 % of control; the T/C (dose: 5.33 mg/kg/injection, schedule: Q04DX003 (ip), vehicle: saline) is 108 % of control; the T/C (dose: 8.0 mg/kg/injection, schedule: Q04DX003 (ip), vehicle: saline) is 115 % of control. For the same compound, the T/C was 120 % of control (dose: 8.33 mg/kg/injection, schedule: Q04DX003 (ip), vehicle: saline); 163 % of control (dose: 12.0 mg/kg/injection, schedule: Q01DX009 (ip), vehicle: saline); 181 % of control under setting [1]; 159 % of control (dose: 18.0 mg/kg/injection, schedule: Q01DX009 (ip), vehicle: saline); 104 % of control under setting [2]; 104 % of control under setting [3]. Also, the T/C under setting [4] is 113 % of control.
As for `C[N+](C)(C)N=C1CCC2(CC1)c1ccccc1-c1ccccc12`, the T/C was 95 % of control (dose: 5.15 mg/kg/injection, schedule: Q04DX003 (ip), vehicle: saline); 95 % of control (dose: 6.25 mg/kg/injection, schedule: Q01DX009 (ip), vehicle: saline); 100 % of control (dose: 10.31 mg/kg/injection, schedule: Q04DX003 (ip), vehicle: saline); 91 % of control (dose: 12.5 mg/kg/injection, schedule: Q01DX009 (ip), vehicle: saline); 115 % of control (dose: 20.62 mg/kg/injection, schedule: Q04DX003 (ip), vehicle: saline); 100 % of control under setting [2]. Also, the T/C was 113 % of control (dose: 35.0 mg/kg/injection, schedule: Q01DX009 (ip), vehicle: saline); 104 % of control (dose: 41.25 mg/kg/injection, schedule: Q04DX003 (ip), vehicle: saline); 90 % of control (dose: 55.0 mg/kg/injection, schedule: Q01DX009 (ip), vehicle: saline).
For the compound `Cc1cccc(NC(=O)Nc2ccc(Oc3ccccc3Cl)c(S(=O)(=O)O)c2)c1`, the T/C was 90 % of control under setting [2]; 90 % of control under setting [3]; 90 % of control (dose: 100.0 mg/kg/injection, schedule: Q01DX009 (ip), vehicle: saline).
`O=C(NC(=O)c1c(F)cccc1F)Nc1ccc(Br)cn1`: the T/C was 99 % of control under setting [5], 92 % of control under setting [6] and 92 % of control under setting [7].
`S=c1cc(-c2ccco2)ss1`: the T/C under setting [5] is 112 % of control; the T/C under setting [6] was 95 % of control; the T/C under setting [7] is 98 % of control; the T/C under setting [8] was 110 % of control; the T/C under setting [9] was 102 % of control; the T/C under setting [10] is 100 % of control. Besides, the T/C is 107 % of control under setting [11] and 101 % of control under setting [12].
`C#CCOC(=O)NCCC`: the T/C by setting is: under setting [13], 110 % of control; (dose: 50.0 mg/kg/injection, schedule: Q04DX003 (ip), vehicle: Klucel (hydroxypropylcellulose) (HPC)) 95 % of control; under setting [14], 105 % of control; under setting [15], 104 % of control; under setting [16], 115 % of control; under setting [17], 104 % of control.
As to `OC(COc1cccc(C(F)(F)F)c1)CN1CCN(c2ccc(F)cc2)CC1` (stereo unspecified), the T/C is, setting by setting: under setting [5], 96 % of control; under setting [6], 96 % of control; under setting [7], 118 % of control.
For `COc1cc2c(cc1OC(C)=O)C(=O)CCCC2`, the T/C is, setting by setting: under setting [8], 89 % of control; under setting [10], 103 % of control; under setting [12], 99 % of control.
As for `Cc1ccc(C2(C(=O)O)CCCCC2)cc1`, the T/C runs as follows: under setting [14], 100 % of control; under setting [15], 109 % of control; under setting [16], 92 % of control; under setting [17], 104 % of control; under setting [18], 100 % of control.
Regarding `Cc1ccc(S(=O)(=O)CC#CCOc2ccccc2)cc1`, the T/C is 100 % of control under setting [4]; 100 % of control (dose: 100.0 mg/kg/injection, schedule: Q04DX003 (ip), vehicle: saline); 104 % of control (dose: 200.0 mg/kg/injection, schedule: Q04DX003 (ip), vehicle: saline).
As for `Cc1ccc(Cl)cc1O`, the T/C reads like this: under setting [6], 100 % of control; under setting [7], 96 % of control; (dose: 200.0 mg/kg/injection, schedule: Q04DX003 (ip), vehicle: saline + alcohol) 104 % of control; (dose: 300.0 mg/kg/injection, schedule: Q04DX003 (ip), vehicle: saline + alcohol) 104 % of control; (dose: 450.0 mg/kg/injection, schedule: Q04DX003 (ip), vehicle: saline + alcohol) 91 % of control.
Take `C[N+](C)(Cn1ncc2cc([N+](=O)[O-])ccc21)Cn1ncc2cc([N+](=O)[O-])ccc21`: the T/C was 113 % of control under setting [8] and 104 % of control under setting [10].
On to `O=C(O)C(=O)O.[U]`, for which the T/C (dose: 25.0 mg/kg/injection, schedule: Q04DX003 (ip), vehicle: saline with Tween-80) is 100 % of control.
As for `Cc1c(Cl)cccc1N1C(=O)CC(Sc2ccccc2N)C1=O` (stereo unspecified), the T/C was 110 % of control under setting [7]; 95 % of control under setting [8]; 105 % of control under setting [9]; 104 % of control under setting [10]; 105 % of control under setting [11]; 109 % of control under setting [12].
In the case of `CCSc1nc(C=O)c(Cc2ccc(Br)cc2)c(=O)[nH]1`, the T/C was 109 % of control under setting [8], 122 % of control under setting [10] and 150 % of control under setting [12].
Consider `N=C([Se])c1ncn(C2OC(CO)C(O)C2O)c1N` (stereo unspecified), for which the T/C runs as follows: (dose: 6.25 mg/kg/injection, schedule: Q04DX003 (ip), vehicle: saline) 106 % of control; under setting [1], 108 % of control; (dose: 25.0 mg/kg/injection, schedule: Q04DX003 (ip), vehicle: saline) 111 % of control; under setting [4], 106 % of control.
For `C=C1C(=O)OC2/C=C(\C)C3(O)OC(C)(CC(OC(=O)C(C)C)C12)CC3O` (stereo unspecified), the T/C (dose: 10.0 mg/kg/injection, schedule: Q01DX009 (ip), vehicle: saline) is 96 % of control and the T/C (dose: 40.0 mg/kg/injection, schedule: Q01DX009 (ip), vehicle: saline) was 96 % of control.
For the compound `CC12CCC(C=C1N1CCCCC1)C(C)(C)O2` (stereo unspecified), the T/C under setting [19] was 101 % of control, the T/C under setting [20] was 101 % of control and the T/C under setting [21] is 106 % of control.
Regarding `[NH-]C(CCC(N)=O)C(=O)O.[NH-]C(CCC(N)=O)C(=O)O.[Zn+2]` (stereo unspecified), the T/C is 91 % of control (dose: 12.5 mg/kg/injection, schedule: Q01DX009 (ip), vehicle: saline with Tween-80); 108 % of control under setting [5]; 121 % of control under setting [6].
As to `COc1ccccc1NC(=O)c1ccc(Cl)cc1Cl`, the T/C (dose: 25.0 mg/kg/injection, schedule: Q01DX009 (ip), vehicle: Klucel (hydroxypropylcellulose) (HPC)) is 116 % of control; the T/C under setting [13] was 122 % of control; the T/C under setting [14] was 122 % of control; the T/C under setting [15] was 100 % of control; the T/C under setting [16] was 104 % of control; the T/C under setting [17] was 95 % of control. Also, the T/C is, setting by setting: (dose: 400.0 mg/kg/injection, schedule: Q01DX009 (ip), vehicle: Klucel (hydroxypropylcellulose) (HPC)) 104 % of control; under setting [18], 104 % of control.
Take `O=[N+]([O-])c1ccc(/C=C/c2cccc(/C=C/c3ccc([N+](=O)[O-])cc3)[n+]2[O-])cc1`: the T/C is, setting by setting: under setting [19], 96 % of control; under setting [20], 94 % of control; under setting [21], 93 % of control.
